Reference: patent publication US9198894B2, “Uses of 15-benzylidene-14-deoxy-11,12-didehydroandrographolide derivatives in the preparation of antineoplastic drugs” (Zhengzhou University, priority 2010, dated 2015)
Read-outs that look alike come from different tables or passages of the source. Marks after values point to notes of the source that are not given here.

Experiments:
[1] = system: 5637 human urinary bladder cancer cells; experiment: Wound healing (two-dimensional migration) assay, 5637; format: cell-based; settings: 5637, 10.00 μmol/l, 24 h (FIG. 1C)
Procedure: (§1) 1) Cell lines: Cell lines of 5637 human bladder carcinoma, Eca-109 human esophageal carcinoma, HT29 human colon cancer, SGC-7901 human gastric cancer, A549 human lung adenocarcinoma and PC-3 human prostate carcinoma were purchased from the Type Culture Collection of the Chinese Academy of Sciences, Shanghai, China.
(§2) 3) Methods: The cells were trypsinized to generate a single-cell suspension and seeded in 96-well plates (200 μl/well), and incubated with medium containing 10% fetal bovine serum at 37 in a humidified atmosphere with 5% CO2. Following a 24 h incubation, the cells were starved for an additional 12 h in low-serum media (1% FBS). The cultures of Eca-109, HT29, 5637, SGC-7901, A549 and PC-3 were then scratched away with a 200-μl plastic pipette tip and rinsed twice with PBS to remove wound-derived loose and dislodged cells. The cells were cultured in replaced medium without or with compounds at final concentrations of 0, 2.50, 5.00 and 10.00 μmol/L, respectively. At least seven randomly selected views along the scraped line in each well were photographed immediately and 24 h and 36 h after incubation using a digital camera at 50× magnification. The average scraped area in each well under each treatment condition was measured, and the percentage of inhibition against cell migration was calculated. % of inhibition=1−(A0−At)/(A′0−A′t)×100%, where, A0 and At are the areas of wound with compound treatment measured immediately and 24 or 36 h post-injury, respectively; A′0 and A′t are the areas of wound without compound treatment measured immediately and 24 or 36 h post-injury, respectively.

[2] = system: SGC-7901 human gastric cancer; experiment: Colony formation assay, SGC-7901; format: cell-based; settings: for IC50: read-out: Inhibition against tumor cell colony formation IC50
Procedure: (§3) 1) Cell lines: Cell lines of SGC-7901 human gastric cancer, A549 human lung adenocarcinoma and Hela human cervical carcinoma were purchased from the Type Culture Collection of the Chinese Academy of Sciences, Shanghai, China.
(§4) 3) Method: Colony formation assay was used. The cells were trypsinized to generate a single-cell suspension and seeded in a 6-well plate at a density of 100 cells/well, then drug-containing medium was added to the well to make the final concentration of compound to 0, 1.25, 2.50, 5.00, 7.50, 10.00 μmol/L, respectively. The experiments were performed in duplicate, and the cells were cultured at 37 in a humidified atmosphere with 5% CO2. Terminate cell culture when the clones can be seen in the culture plate, then remove the culture medium, and wash twice with PBS, fix the cells with methanol (5 ml/well) for 15 min and stain the cells with hematoxylin-eosin stain. The number of clones which comprised more than 50 cells was counted under a TS100-F-PH microscope (Nikon Company, Japan). Calculate relative colony formation ratio (%) and the IC50 values. Relative colony formation ratio (%)=(colony number of drug-administration well/colony number of control well)×100%.

[3] = system: S180 murine sarcoma; experiment: Growth, invasion and metastasis of S180 sarcoma in tumor-bearing mice; format: in vivo, mouse
Procedure: 1) Animals: Be the same with that of EXAMPLE 4.
2) Cells: The S180 murine sarcoma cells were obtained from Henan Academy of Medical and Pharmaceutical Sciences (Zhengzhou, China).
4) Method: Mice were randomly divided into 10 groups (n=12). The S180 cells after in vivo passage for 7 d were diluted with physiological saline to adjust to a concentration of 1×10^7/mL. The inoculation of tumor cells was conducted in two batches, those of tumor control group I and groups treated with compounds 1 or 3 were in batch 1, those of tumor control group II, Cyc group and the compound 2 groups were in batch 2. The mice were injected with S180 cells (0.2 ml/mouse) into the armpit of right forelimb subcutaneously, and 24 h later each group of mice was administrated intragastrically (ig; 0.2 ml/10 g) once a day continuously for 9 d with vehicle (tumor control group), Cyc (standard control), or compounds at the tested doses. On day 10, kill the mice, observe and record the degree of invasion and metastasis of tumor tissues, then the tumor tissues were segregated and weighed. The inhibition ratio (IR) of tumor growth was calculated by the following formula: IR (%)=[(Wc−Wt)/Wc]×100%, where Wc is the average tumor weight of the control group, and Wt is that of the treatment group. Data were expressed as mean±SD and statistical analysis was performed by SPSS Statistics 17.0 using a one-way analysis of variance (ANOVA) followed by unpaired t-test. A value of P<0.05 was considered statistically significant.

[4] = system: A549 human lung carcinoma cells; experiment: Wound healing (two-dimensional migration) assay, A549; format: cell-based; settings: A549, 10.00 μmol/l, 36 h (FIG. 1E)
Procedure: as §1, §2

[5] = system: Hela human cervical carcinoma; experiment: Colony formation assay, Hela; format: cell-based; settings: for IC50: read-out: Inhibition against tumor cell colony formation IC50
Procedure: as §3, §4

[6] = system: A549 human lung adenocarcinoma; experiment: Colony formation assay, A549; format: cell-based; settings: for IC50: read-out: Inhibition against tumor cell colony formation IC50
Procedure: as §3, §4

[7] = system: Murine hepatoma H22; experiment: Anti-tumor and anti-angiogenesis effects on H22 tumor-bearing mice; format: in vivo, mouse; settings: H22 mice, 1.35 mmol/kg ig once a day 7 d
Source text: 1) Animals: Kunming mice of clean grade, half male and half female, body weight 20±2 g, were purchased from the experimental animal center of Henan Province, China. Qualified Certificate number: SCXK (Yu) 2005-0001.
2) Cells: Murine hepatoma H22 cells were presently obtained from Henan Academy of Medical and Pharmaceutical Sciences (Zhengzhou, China).
Cyclophosphamide (Cyc) was produced by Tianjin Jingshi Pharmaceutical Co., Ltd., China (approval number of medicine: H12021006). Gelatin and carmine red were supplied by Sigma Chemical (St. Louis, Mo., U.S.A). All other chemicals and reagents were of the highest commercial grade available. All drugs were prepared with normal saline emulsified with Tween-80 (0.1% v/v) and dispersed in carboxymethylcellulose (0.5% v/v). 10% (W/V) carmine solution was prepared with salt solution containing 5% (W/V) gelatin which should be used immediately after preparation. The rest of medicines and reagents and the methods for preparation were the same with that of EXAMPLE 1.
4) Method: The H22 cells after in vivo passage for 7 d were diluted with physiological saline to adjust to a concentration of 1×10^7/mL, injected to the armpit of right forelimb of mice subcutaneously (0.2 ml/mouse), then mice were divided into 10 groups (n=12; 6 male and 6 female per group) randomly. 24 h later each group of mice was administrated intragastrically (ig; 0.2 ml/10 g) once a day continuously for 7 d with vehicle (tumor control group and control group), Cyc (standard control), or compounds at the tested doses. After the last drug administration and a following fasting of 8 h, each mouse was anesthetized with 1% pentobarbital in normal saline solution (80 mg/kg; ip). Mice of control group were injected with 5% gelatin in normal saline solution (40) via the tail vein (1 ml/mouse); whereas mice of other groups were injected replaced by 10% carmine red and 5% gelatin in normal saline solution (40). Mice were killed, then freezed in a refrigerator at −20 for 2 h to solidify. Tumors were segregated, weighed and homogenized with 3 M NaOH solution (10 ml/g tumor). The homogenate supernatant was prepared by being centrifuged for 20 min at 14000 rpm, and the absorbance at 490 nm was assayed using a PowerWaveX Microplate Scanning Spectrophotometer (Bio-tek Instruments, Inc). The carmine red content was calculated based on the standard curve. The vascular index (VI) expressed as milligram of carmine red per gram of tumor tissue. The inhibition ratio (IR) of tumor growth was calculated using the formula: IR (%)=[(Wc−Wt)/Wc]×100%, where Wc is the average tumor weight of the control group, and Wt is that of the drug treatment group. Data were expressed as mean±SD and statistical analysis was performed by SPSS Statistics 17.0 using a one-way analysis of variance (ANOVA) followed by unpaired t-test. A value of P<0.05 was considered statistically significant.

[8] = system: Eca-109 human esophageal carcinoma cells; experiment: Wound healing (two-dimensional migration) assay, Eca-109; format: cell-based; settings: Eca-109, 10.00 μmol/l, 24 h (FIG. 1A)
Procedure: as §1, §2

| SMILES | Inhibitory effect on two-dimensional migration [1] | Inhibitory effect on two-dimensional migration [4] | Inhibitory effect on two-dimensional migration [8] | Inhibition of colony formation compared with andrographolide [2] | IC50 [2] | Inhibition of colony formation compared with andrographolide ([5]; Hela) | IC50 ([5]; Hela) | Inhibition of colony formation compared with andrographolide [6] | IC50 [6] | further results |
| --- | --- | --- | --- | --- | --- | --- | --- | --- | --- | --- |
| C=C1CC[C@@H]2[C@](C)(CO)[C@H](O)CC[C@@]2(C)[C@@H]1C/C=C1/C(=O)OC[C@H]1O [Compound 1, Andrographolide] | stronger inhibition | stronger inhibition | – | – | – | – | – | – | – | IC50 ([2]; Homo sapiens): 19000 nM; IR (%) of S180 sarcoma growth ([3]; 1.35 mmol/kg ig once a day 9 d): 17.18 ± 3.21 %; Average invasion and metastasis grade ([3]; S180, grades 0-4, 1.35 mmol/kg): 0.67; Mouse Number Grade 0 ([3]; S180 invasion, Grade 0: no invasion, 1.35 mmol/kg): 6; Mouse Number Grade 1 ([3]; S180 invasion, Grade 1: invasion to right forelimb, 1.35 mmol/kg): 4; Mouse Number Grade 2 ([3]; S180 invasion, Grade 2: right forelimb and the left side of body, 1.35 mmol/kg): 2; Mouse Number Grade 3 ([3]; S180 invasion, Grade 3: also the ribs and muscles in chest, 1.35 mmol/kg): 0; Mouse Number Grade 4 ([3]; S180 invasion, Grade 4: invasion into chest or abdominal cavity, 1.35 mmol/kg): 0; IC50 ([5]; Homo sapiens, HeLa): 2910 nM; IC50 ([6]; Homo sapiens): 11300 nM; IR (%) of tumor growth [7]: 31.70* %; Carmine contents ([7]; mean ± s): 4.66 ± 2.58; VI (vascular index, mg carmine red per g tumor tissue) ([7]; mean ± s): 5.10 ± 2.13 mg/g |
| C=C1CCC2C(C)(CO)C(O)CCC2(C)C1C=CC1=CC(=Cc2ccc(F)cc2)OC1=O (stereo not drawn) [Compound 5] | – | much stronger than that of other tumor cells | much stronger than that of other tumor cells | remarkably stronger than that of andrographolide | 2070 nM | remarkably stronger than that of andrographolide | 1470 nM | remarkably stronger than that of andrographolide | 2270 nM | – |
| C=C1CCC2C(C)(CO)C(O)CCC2(C)C1C=CC1=CC(=Cc2ccc(Br)cc2)OC1=O (stereo not drawn) [Compound 6] | – | – | – | remarkably stronger than that of andrographolide | 2630 nM | remarkably stronger than that of andrographolide | 1980 nM | remarkably stronger than that of andrographolide | 1670 nM | – |
| C=C1CCC2C(C)(CO)C(O)CCC2(C)C1C=CC1=CC(=Cc2ccc(OC)cc2)OC1=O (stereo not drawn) [Compound 7] | stronger inhibition | stronger inhibition | – | remarkably stronger than that of andrographolide | 2450 nM | remarkably stronger than that of andrographolide | 2400 nM | remarkably stronger than that of andrographolide | 3310 nM | – |
| C=C1CCC2C(C)(COC(=O)CCC(=O)O)C(OC(=O)CCC(=O)O)CCC2(C)C1C=CC1=CC(=Cc2ccc(Cl)cc2)OC1=O (stereo not drawn) [Compound 8] | – | much stronger than that of other tumor cells | much stronger than that of other tumor cells | – | – | – | – | – | – | – |
